Measurements from PubChem BioAssay AID248 (DTP/NCI, 2004).
Values joined by “and” are separate entries in the source; they are usually repeats but may differ in a detail not shown here. Equal values may be shown once. Toxic doses and inconclusive results are not listed. Rule as the data show it: active = T/C of 150% or more; inactive = T/C below 125%.

Test system: L1210 leukemia ip in BDF1 mice, survival T/C
Test: NCI In Vivo Anticancer Drug Screen. Data for tumor model L1210 Leukemia (intraperitoneal) in B6D2F1 (BDF1) mice
Details: endpoint: mean survival time, higher = longer survival
In short: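 Each compound was tested against a transplantable tumor grown in mice. The endpoint was survival, with treated animals benchmarked against vehicle controls as a simple ratio.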

[1] = dose: 100.0 mg/kg/injection, schedule: Q04DX003 (ip), vehicle: saline with Tween-80
[2] = dose: 200.0 mg/kg/injection, schedule: Q04DX003 (ip), vehicle: saline with Tween-80
[3] = dose: 400.0 mg/kg/injection, schedule: Q04DX003 (ip), vehicle: saline with Tween-80
[4] = dose: 100.0 mg/kg/injection, schedule: Q01DX009 (ip), vehicle: saline with Tween-80
[5] = dose: 200.0 mg/kg/injection, schedule: Q01DX009 (ip), vehicle: saline with Tween-80
[6] = dose: 400.0 mg/kg/injection, schedule: Q01DX009 (ip), vehicle: saline with Tween-80
[7] = dose: 100.0 mg/kg/injection, schedule: Q01DX009 (ip), vehicle: Klucel (hydroxypropylcellulose) (HPC)
[8] = dose: 100.0 mg/kg/injection, schedule: Q04DX003 (ip), vehicle: Klucel (hydroxypropylcellulose) (HPC)
[9] = dose: 200.0 mg/kg/injection, schedule: Q04DX003 (ip), vehicle: Klucel (hydroxypropylcellulose) (HPC)
[10] = dose: 400.0 mg/kg/injection, schedule: Q04DX003 (ip), vehicle: Klucel (hydroxypropylcellulose) (HPC)
[11] = dose: 50.0 mg/kg/injection, schedule: Q01DX001 (ip), vehicle: carboxymethylcellulose (CMC)
[12] = dose: 50.0 mg/kg/injection, schedule: Q01DX009 (ip), vehicle: Klucel (hydroxypropylcellulose) (HPC)

Measured: T/C

CCCCNC(C)(C)CSSSCC(C)(C)NCCCC
inactive: dose: 6.25 mg/kg/injection, schedule: Q01DX009 (ip), vehicle: water 102 % of control | dose: 12.5 mg/kg/injection, schedule: Q01DX009 (ip), vehicle: water 92 % of control | dose: 12.5 mg/kg/injection, schedule: Q04DX003 (ip), vehicle: other 96 % of control | dose: 25.0 mg/kg/injection, schedule: Q01DX009 (ip), vehicle: water 92 % of control | dose: 25.0 mg/kg/injection, schedule: Q04DX003 (ip), vehicle: other 94 % of control | dose: 50.0 mg/kg/injection, schedule: Q01DX009 (ip), vehicle: other 106 % of control | dose: 50.0 mg/kg/injection, schedule: Q01DX009 (ip), vehicle: water 103 % of control | dose: 50.0 mg/kg/injection, schedule: Q04DX003 (ip), vehicle: other 94 % of control | dose: 100.0 mg/kg/injection, schedule: Q01DX009 (ip), vehicle: other 95 % of control

CC(C)N(C(=S)S)C(C)C
inactive: dose: 100.0 mg/kg/injection, schedule: Q01DX009 (ip), vehicle: saline 105 % of control | dose: 200.0 mg/kg/injection, schedule: Q01DX009 (ip), vehicle: saline 102 % of control | dose: 400.0 mg/kg/injection, schedule: Q01DX009 (ip), vehicle: saline 103 % of control

C1CCC(SSC2CCCC2)C1
inactive: [1] 89 % of control | [2] 92 % of control | [3] 92 % of control

CCCCCCCCCCCC(=O)NC(=S)NCc1cccnc1
inactive: dose: 100.0 mg/kg/injection, schedule: Q01DX001 (ip), vehicle: saline with Tween-80 92 % of control | [4] 101 % of control and 105 % of control | dose: 100.0 mg/kg/injection, schedule: Q04DX002 (ip), vehicle: saline with Tween-80 98 % of control and 100 % of control | dose: 200.0 mg/kg/injection, schedule: Q01DX001 (ip), vehicle: saline with Tween-80 93 % of control | [5] 99 % of control and 107 % of control | dose: 200.0 mg/kg/injection, schedule: Q04DX002 (ip), vehicle: saline with Tween-80 108 % of control and 112 % of control | dose: 400.0 mg/kg/injection, schedule: Q01DX001 (ip), vehicle: saline with Tween-80 98 % of control | [6] 96 % of control and 108 % of control | dose: 400.0 mg/kg/injection, schedule: Q04DX002 (ip), vehicle: saline with Tween-80 105 % of control

COc1ccc2c(c1C)OC(C)C2=O (stereo not given)
inactive: [7] 93 % of control | [8] 101 % of control | dose: 200.0 mg/kg/injection, schedule: Q01DX009 (ip), vehicle: Klucel (hydroxypropylcellulose) (HPC) 92 % of control | [9] 104 % of control | dose: 400.0 mg/kg/injection, schedule: Q01DX009 (ip), vehicle: Klucel (hydroxypropylcellulose) (HPC) 104 % of control | [10] 97 % of control

CSc1ccnc2[nH]ncc12
inactive: dose: 100.0 mg/kg/injection, schedule: Q04DX002 (ip), vehicle: DMSO 94 % of control | dose: 200.0 mg/kg/injection, schedule: Q04DX002 (ip), vehicle: DMSO 105 % of control

CCCC[As](=O)(O)CC
inactive: dose: 25.0 mg/kg/injection, schedule: Q01DX009 (ip), vehicle: saline 104 % of control

CC1(C)Cc2cccc(C=C(C#N)C#N)c2O1
inactive: [8] 106 % of control | [9] 97 % of control | [10] 113 % of control

CC1=Nc2ccccc2NC(C)(C)C1
inactive: dose: 100.0 mg/kg/injection, schedule: Q04DX002 (ip), vehicle: saline 102 % of control | [8] 100 % of control | dose: 200.0 mg/kg/injection, schedule: Q04DX002 (ip), vehicle: saline 102 % of control | [9] 98 % of control | [10] 98 % of control

Nc1ccccc1NC(=O)C(F)(F)F
inactive: [11] 93 % of control | dose: 100.0 mg/kg/injection, schedule: Q01DX001 (ip), vehicle: carboxymethylcellulose (CMC) 97 % of control | dose: 200.0 mg/kg/injection, schedule: Q01DX001 (ip), vehicle: carboxymethylcellulose (CMC) 98 % of control | dose: 400.0 mg/kg/injection, schedule: Q01DX001 (ip), vehicle: carboxymethylcellulose (CMC) 108 % of control

CNC(Cc1ccc(OCc2ccccc2)cc1)C(=O)NC(CO)CC(C)C (stereo not given)
inactive: [1] 102 % of control | [2] 96 % of control | [3] 105 % of control

Cc1ccccc1C1(c2ccccc2C)OC(=O)c2ccccc21
inactive: [4] 93 % of control | [5] 89 % of control | [6] 90 % of control

COC(=O)C1C2C=CC(CC2)C1(C)C(=O)OC (stereo not given)
inactive: [1] 95 % of control | [2] 101 % of control | [3] 90 % of control

CCCCOB(CI)OCCCC
inactive: dose: 6.25 mg/kg/injection, schedule: Q01DX009 (ip), vehicle: saline sonified 96 % of control | dose: 6.25 mg/kg/injection, schedule: Q04DX003 (ip), vehicle: saline sonified 94 % of control | dose: 12.5 mg/kg/injection, schedule: Q01DX009 (ip), vehicle: saline sonified 100 % of control | dose: 12.5 mg/kg/injection, schedule: Q04DX003 (ip), vehicle: saline sonified 92 % of control | dose: 25.0 mg/kg/injection, schedule: Q01DX009 (ip), vehicle: saline sonified 104 % of control | dose: 25.0 mg/kg/injection, schedule: Q04DX003 (ip), vehicle: saline sonified 105 % of control

NC(=S)N/N=C/c1cccnc1
inactive: dose: 25.0 mg/kg/injection, schedule: Q01DX009 (ip), vehicle: Klucel (hydroxypropylcellulose) (HPC) 92 % of control | [12] 87 % of control | dose: 50.0 mg/kg/injection, schedule: Q04DX002 (ip), vehicle: Klucel (hydroxypropylcellulose) (HPC) 98 % of control | [7] 89 % of control | dose: 100.0 mg/kg/injection, schedule: Q04DX002 (ip), vehicle: Klucel (hydroxypropylcellulose) (HPC) 95 % of control and 107 % of control | dose: 200.0 mg/kg/injection, schedule: Q04DX002 (ip), vehicle: Klucel (hydroxypropylcellulose) (HPC) 95 % of control

O=C1CC(=O)C(Cl)=C1Cl
inactive: dose: 15.0 mg/kg/injection, schedule: Q01DX001 (ip), vehicle: carboxymethylcellulose (CMC) 93 % of control

ClC1=C(Cl)C(Cl)(Cl)C2C1C1C(Cl)=C(Cl)C(Cl)(Cl)C1C1C2C(Cl)=C(Cl)C1(Cl)Cl (stereo not given)
inactive: dose: 100.0 mg/kg/injection, schedule: Q01DX001 (ip), vehicle: gum acacia 95 % of control | dose: 100.0 mg/kg/injection, schedule: Q01DX009 (ip), vehicle: gum acacia 92 % of control | dose: 200.0 mg/kg/injection, schedule: Q01DX001 (ip), vehicle: gum acacia 88 % of control | dose: 200.0 mg/kg/injection, schedule: Q01DX009 (ip), vehicle: gum acacia 94 % of control | dose: 400.0 mg/kg/injection, schedule: Q01DX001 (ip), vehicle: gum acacia 92 % of control | dose: 400.0 mg/kg/injection, schedule: Q01DX009 (ip), vehicle: gum acacia 93 % of control

O=C1C2CCC(C2)C1C(O)(C(F)(F)Cl)C(F)(F)Cl (stereo not given)
inactive: dose: 50.0 mg/kg/injection, schedule: Q01DX009 (ip), vehicle: saline with Tween-80 92 % of control | [4] 90 % of control | [5] 90 % of control | [6] 92 % of control

OC(C/C=C/c1ccccc1)c1ccccc1 (stereo not given)
inactive: [12] 91 % of control | [7] 97 % of control

Nc1nc2ncc(CN(N=O)c3ccc(C(=O)NC(CCC(=O)O)C(=O)O)cc3)nc2c(=O)[nH]1 (stereo not given)
inactive: dose: 0.62 mg/kg/injection, schedule: Q01DX009 (ip), vehicle: water 98 % of control | dose: 1.25 mg/kg/injection, schedule: Q01DX009 (ip), vehicle: water 100 % of control | dose: 2.5 mg/kg/injection, schedule: Q01DX009 (ip), vehicle: water 98 % of control | dose: 5.0 mg/kg/injection, schedule: Q01DX009 (ip), vehicle: water 96 % of control | dose: 10.0 mg/kg/injection, schedule: Q01DX009 (ip), vehicle: water 98 % of control

CCN(CC)CCCCCCNc1ccnc2cc(Cl)ccc12
inactive: [11] 95 % of control
